From US20260184700A1, “PDK1 REGULATORY COMPOUND AND COMPOSITION CONTAINING THE SAME” (PROVIBIO CO., LTD., priority 2024, published 2026)

Key:
[1] = test system: Human Bladder cancer cell, T24; assay: Relative cell viability, CCK-8, T24; type: cell-based; conditions: 48 hours
Procedure: (§1) Human-derived breast cancer cell line MCF-7, human-derived lung cancer cell line A549, human-derived colorectal cancer cell line HCT-116, human pancreatic cancer cell line AsPC-1, glioblastoma cell line A172, and melanoma cell line Malme-3M were obtained from the Korean Cell Bank. gastric cancer cell line SNU-719, and bladder cancer cell line T24 were cultured in RPMI-1640 medium containing 10% FBS.
(§2) Following stabilization, the cells were harvested using Trypsin-EDTA treatment, centrifuged at 1,200 rpm for 3 minutes, the supernatant was removed, and the cells were resuspended in the same medium. They were then seeded into a 96-well plate (Costar 96-well cell culture plate, Corning) at 100 μL per well, and the conditions were adjusted as indicated in Table 5.
(§3) The cells were cultured in a 5% CO2 incubator at 37° C. for 24 hours, and after stabilization of the cells, each plate was washed with 200 μL of PBS per well and treated with 50 μL of culture medium per well. […]
(§4) After that, 10 μL of CCK-8 was added to each well, and the plate was incubated again at 37° C. in a 5% CO2 incubator for 2 hours.
(§5) In other words, when the survival rate of untreated cells (DMSO) is set at 100%, the relative cell survival rate in each group treated with the drug at different concentrations is indicated.

[2] = test system: Human Osteosarcoma, Saos-2; assay: Relative cell viability, CCK-8, Saos-2; type: cell-based
Procedure: Human-derived head and neck cancer cell line Fadu and osteosarcoma cell line Saos-2 were cultured in MEM medium containing 10% FBS, 100 U/mL penicillin, and 100 μg/mL streptomycin.
as §2, §3, §4, §5

[3] = test system: phospho-PDK1 in SU-DHL-8 cells; assay: PDK1 phosphorylation (pPDK1) by flow cytometry in SU-DHL-8 cells; type: cell-based, human; conditions: SU-DHL-8, 24 hours, pPDK1-PE flow cytometry, vs control group
Procedure: SU-DHL-8 cells were cultured in RPMI-1640 medium (containing 10% FBS, 100 U/mL penicillin, and 100 μg/mL streptomycin), and the cell concentration was adjusted to 1×10^6 cells/mL and seeded into a 12-well plate. After stabilizing the cells, the compound of the present invention was added, and the cells were cultured for 24 hours.
After drug treatment, the cells were harvested, and the Fc receptor blocking process was performed. The cells were then fixed and permeabilized using the Intracellular Staining Kit (Cat. No. BD554715) from BD Biosciences. Subsequently, the intracellular pPDK1 was stained using the pPDK1-PE fluorescently labeled antibody (BD Biosciences).
Referring to the figure, the vertical axis represents the phosphorylation level of PDK1 (phospho-PDK1 expression level), and the horizontal axis denotes the concentration-dependent treatment conditions of each compound.

[4] = test system: psoriasis-induced BALB/c mice; assay: Psoriasis animal model (Aldara cream, Imiquimod); type: in vivo, mouse
Procedure: To verify the therapeutic effect of the compound according to the present invention on psoriasis, a psoriasis animal model was established as follows, and the compound according to the present invention was administered to evaluate the alleviation of skin lesions and changes in immune cell patterns.
For the establishment of the psoriasis animal model, BALB/c mice (7 weeks old, female, 20 g) were purchased from HanabioTech Co., Ltd. and acclimatized to the rearing environment for one week.
Subsequently, the hair on the mouse back was shaved using a hair removal device for the first time, and then completely shaved using a depilatory cream (Nicrin Cream (80% thioglycolic acid, Il Dong Pharmaceutical)) for the second time. The mice were then kept for 24 hours to confirm the absence of skin damage.
To verify the psoriasis prevention and therapeutic effects of the compounds according to the present invention, the following experimental groups were established:
[Normal control group (Normal, Not Treatment), psoriasis-induced control group (Psoriasis, Not Treatment), psoriasis-induced vehicle control group (Psoriasis, Vehicle), experimental group (GO85, GO86, GO88, GO89, PBK-2024-010, PBK-2024-026, PBK-2025-002, PBK-2025-004, PBK-2025-016, PBK-2025-017, PBK-2025-023)]. […]
Body weights of mice in each group were measured on days 1, 4, and 8 after the start of injection and psoriasis induction. […]
To evaluate the therapeutic effect in a psoriasis-induced mouse model, the PASI (Psoriasis Area and Severity Index) score was measured.
The PASI score is based on three criteria: erythema, scaling, and skin thickness, each scored from 0 (none) to 4 (severe). […]
Observations were conducted daily at the same time, and the same observer visually assessed each criterion and recorded the scores, with the results presented in FIG. 13. […]
All samples were measured in duplicate, and the absorbance was measured at 450 nm using a microplate reader.

[5] = test system: Human Melanoma cancer cell, Malme-3M; assay: Relative cell viability, CCK-8, Malme-3M; type: cell-based; conditions: 48 hours
Procedure: as §1, §2
The cells were cultured in a 5% CO2 incubator at 37° C. for 24 hours, and after stabilization of the cells, each plate was washed with 200 μL of PBS per well and treated with 50 μL of culture medium per well.
as §4, §5

SMILES | Relative cell viability (%) ([1]; T24, 1 μM) | Relative cell viability (%) ([1]; T24, 10 μM) | Relative cell viability (%) ([1]; T24, 30 μM) | Relative cell viability (%) ([1]; T24, 50 μM) | Relative cell viability (%) ([2]; Saos-2, 10 μM, 48 hours) | Relative cell viability (%) ([2]; Saos-2, 30 μM, 48 hours) | Relative cell viability (%) ([2]; Saos-2, 50 μM, 48 hours) | Relative cell viability (%) ([2]; Saos-2, 48 hours) | PDK1 phosphorylation (phospho-PDK1 expression level) [3] | efficacy in improving dermatological symptoms [4] | Relative cell viability (%) ([5]; 1 μM) | Relative cell viability (%) ([5]; 10 μM) | Relative cell viability (%) ([5]; 30 μM) | Relative cell viability (%) ([5]; 50 μM)
CC1(C)CN(CCCCCCCCCCCCC(=O)Nc2nc(N)c3[nH]cnc3n2)CCO1 [Compound 11, 12-[4-(2,2-dimethylmorpholin-4-yl)]dodecyl-N-(6-aminopurine-2-yl)carboxamide] | 28.15 | 31.17 | 30.42 | 29.34 | 24.98 | 16.00 | 36.73 | 36.73 | stronger PDK1 inhibition | excellent efficacy in improving dermatological symptoms | 44.06 | 37.40 | 36.80 | 38.87
Nc1ncccc1C(=O)NCCCCCCCCCCCCN1CCNCC1 [Compound 14, 2-Amino-N-(12-(piperazin-1-yl)dodecyl)nicotinamide] |  |  |  |  |  |  |  |  | stronger PDK1 inhibition | excellent efficacy in improving dermatological symptoms |  |  |  | 
